Patent US20100190683A1, “SOLIDIFIED DETERGENT COMPOSITIONS AND METHOD FOR PRODUCING THE SAME” (priority 2007, published 2010)

Assays:
[1] = Solubility to tap water of the substance obtained by azeotrope at 70° C.; format: physicochemical; details: surfactant HD, tap water of 5 mL
Description: In the undiluted solution of octadecyl dimethyl (3-trimethoxysilyl propyl) ammonium chloride (hereinafter referred to as QAS) which is an antimicrobial detergent, hexadecyl trimethyl ammonium (hereinafter referred to as HD), which was a cationic surfactant, was added, and for the azeotrope, a sample solution with the addition of acetone or ethanol was prepared, azeotrope was performed at 70° C. […] In the resultant gelated substance, tap water of 5 mL was added, but gelation advanced in many samples highly and solidification was occurred within several minutes to 1 hour, and those were not suitable for practical use (Table 1).

[2] = Solubility to tap water and behavior after dissolution of lyophilized samples; format: physicochemical; details: lyophilization 15 hours
Description: On the other hand, such a phenomenon was not seen when ethanol was added (Table 1). Therefore, in the conditions like the ethanol addition groups, the sample was prepared by using t-butyl alcohol in substitution for ethanol, and lyophilized for 15 hours. As a result, solidification (powderization) by lyophilization was possible in both samples. In addition, the solubility to tap water was good, and after dissolution, gelation or the like has not also happened (Table 2). Furthermore, ethanol or t-butyl alcohol was not added, and in the system which only HD was added, the solubility to tap water was good, and after dissolution, gelation or the like had not also happened (Table 2). In the system which as substitution for HD, a nonionic surfactant, polyoxyethylene sorbitan monolaurate (hereinafter referred to as PO) was added, this system was also examined, and then a similar good result was obtained.

[3] = surfactant HD, solvent t-Butyl alcohol
[4] = surfactant HD, solvent: nothing
[5] = surfactant PO, solvent: nothing

## CCCCCCCCCCCCCCCCCC[N+](C)(C)CCC[Si](OC)(OC)OC.[Cl-] [QAS, octadecyl dimethyl (3-trimethoxysilyl propyl) ammonium chloride]
[1]; solvent addition Acetone
  Solubility to tap water: Gel→Consolidate
[1]; solvent addition: nothing
  Solubility to tap water: Gel→Consolidate
[2]; surfactant HD, solvent Ethanol
  Behavior after dissolution: No problem
  Solubility to tap water: No problem
[2]; [3]
  Behavior after dissolution: No problem
  Solubility to tap water: No problem
[2]; [4]
  Behavior after dissolution: No problem
  Solubility to tap water: No problem
[2]; [5]
  Behavior after dissolution: No problem
  Solubility to tap water: No problem
